# Legend:
# [1] = system: 3MR or INK-ATTAC mice exposed to cigarette smoke; test: Cigarette smoke COPD model, oxygen saturation by pulse oximeter; assay type: in vivo, mouse; details: after two months of cigarette smoke exposure, compared with untreated controls
# Excerpt: The mice used in this study include the 3MR strain, described in US 2017/0027139 A1 and in Demaria et al., Dev Cell. 2014 Dec. 22; 31(6): 722-733. The 3MR mouse has a transgene encoding thymidine kinase that converts the prodrug ganciclovir (GCV) to a compound that is lethal to cells. The enzyme in the transgene is placed under control of the p16 promoter, which causes it to be specifically expressed in senescent cells. Treatment of the mice with GCV eliminates senescent cells.
# Other mice used in this study include the INK-ATTAC strain, described in US 2015/0296755 A1 and in Baker et al., Nature 2011 Nov. 2; 479(7372):232-236. The INK-ATTAC mouse has a transgene encoding switchable caspase 8 under control of the p16 promoter. The caspase 8 can be activated by treating the mice with the switch compound AP20187, whereupon the caspase 8 directly induces apoptosis in senescent cells, eliminating them from the mouse.
# To conduct the experiment, six-week-old 3MR (n=35) or INK-ATTAC (n=35) mice were chronically exposed to cigarette smoke generated from a Teague TE-10 system, an automatically-controlled cigarette smoking machine that produces a combination of side-stream and mainstream cigarette smoke in a chamber, which is transported to a collecting and mixing chamber where varying amounts of air is mixed with the smoke mixture. The COPD protocol was adapted from the COPD core facility at Johns Hopkins University (Rangasamy et al., 2004, J. Clin. Invest. 114:1248-1259; Yao et al., 2012, J. Clin. Invest. 122:2032-2045).
# Mice received a total of 6 hours of cigarette smoke exposure per day, 5 days a week for 6 months. Each lighted cigarette (3R4F research cigarettes containing 10.9 mg of total particulate matter (TPM), 9.4 mg of tar, and 0.726 mg of nicotine, and 11.9 mg carbon monoxide per cigarette [University of Kentucky, Lexington, Ky.]) was puffed for 2 seconds and once every minute for a total of 8 puffs, with the flow rate of 1.05 L/min, to provide a standard puff of 35 cm3. The smoke machine was adjusted to produce a mixture of side stream smoke (89%) and mainstream smoke (11%) by smoldering 2 cigarettes at one time. The smoke chamber atmosphere was monitored for total suspended particulates (80-120 mg/m3) and carbon monoxide (350 ppm). […]
# After two months of cigarette smoke (CS) exposure, lung function was assessed by monitoring oxygen saturation using the MouseSTAT PhysioSuite™ pulse oximeter (Kent Scientific). […] Mice were monitored for 30 seconds and the average peripheral capillary oxygen saturation (SpO2) measurement over this duration was calculated.
# [2] = system: primary cells from patients with B-cell malignancies; details: in vitro; cited from earlier work
# [3] = system: cancer cells; details: cited from earlier work
# [4] = system: LDLR-/- mice fed a high fat diet; test: Atherosclerosis model: RT-PCR of SASP factors and senescent cell markers in aortic arch; assay type: in vivo, mouse; details: 25 mg/kg intraperitoneally, HFD
# Procedure: Two groups of LDLR−/− mice (10 weeks) are fed a high fat diet (HFD) (Harlan Teklad TD.88137) having 42% calories from fat, beginning at Week 0 and throughout the study. Two groups of LDLR−/− mice (10 weeks) are fed normal chow (−HFD). From weeks 0-2, one group of HFD mice and −HFD mice are treated with Nutlin-3A (25 mg/kg, intraperitoneally). One treatment cycle is 14 days treatment, 14 days off. Vehicle is administered to one group of HFD mice and one group of −HFD mice. At week 4 (timepoint 1), one group of mice are sacrificed and to assess presence of senescent cells in the plaques. For the some of the remaining mice, Nutlin-3A and vehicle administration is repeated from weeks 4-6. […]
# At the end of timepoint 1, LDLR−/− mice fed a HFD and treated with Nutlin-3A or vehicle were sacrificed (n=3, all groups), and the aortic arches were dissected for RT-PCR analysis of SASP factors and senescent cell markers. Values were normalized to GAPDH and expressed as fold-change versus age-matched, vehicle-treated LDLR−/− mice on a normal diet.
# At the end of timepoint 2, LDLR−/− mice fed a HFD and treated with Nutlin-3A or vehicle (n=3 for all groups) were sacrificed, and aortic arches were dissected for RT-PCR analysis of SASP factors and senescent cell markers. Values were normalized to GAPDH and expressed as fold-change versus age-matched, vehicle-treated LDLR−/− mice on a normal diet.
# [5] = system: C57BL/6J mice with surgery-induced osteoarthritis; test: Osteoarthritis model: weight bearing test of hind limbs; assay type: in vivo, mouse; details: 4 weeks post-surgery
# Procedure: (§1) The model was implemented as follows. C57BL/6J mice underwent surgery to cut the anterior cruciate ligament of one rear limb to induce osteoarthritis in the joint of that limb. During week 3 and week 4 post-surgery, the mice were treated with 5.8 μg of Nutlin-3A (n=7) per operated knee by intra-articular injection, q.o.d. for 2 weeks. At the end of 4 weeks post-surgery, joints of the mice were monitored for presence of senescent cells, assessed for function, monitored for markers of inflammation, and underwent histological assessment.
# Function of the limbs was assessed 4 weeks post-surgery by a weight bearing test to determine which leg the mice favored. The mice were allowed to acclimate to the chamber on at least three occasions prior to taking measurements. Mice were maneuvered inside the chamber to stand with one hind paw on each scale. The weight that was placed on each hind limb was measured over a three second period. At least three separate measurements were made for each animal at each time point. The results were expressed as the percentage of the weight placed on the operated limb versus the contralateral unoperated limb.
# [6] = system: LDLR-/- mice fed a high fat diet; test: Atherosclerosis model: Sudan IV staining of aortic plaques; assay type: in vivo, mouse; details: timepoint 3 (week 12), 25 mg/kg intraperitoneally, HFD
# Procedure: (§2) Two groups of LDLR−/− mice (10 weeks) are fed a high fat diet (HFD) (Harlan Teklad TD.88137) having 42% calories from fat, beginning at Week 0 and throughout the study. Two groups of LDLR−/− mice (10 weeks) are fed normal chow (−HFD). From weeks 0-2, one group of HFD mice and −HFD mice are treated with Nutlin-3A (25 mg/kg, intraperitoneally). One treatment cycle is 14 days treatment, 14 days off. Vehicle is administered to one group of HFD mice and one group of −HFD mice. At week 4 (timepoint 1), one group of mice are sacrificed and to assess presence of senescent cells in the plaques. For the some of the remaining mice, Nutlin-3A and vehicle administration is repeated from weeks 4-6. At week 8 (timepoint 2), the mice are sacrificed and to assess presence of senescent cells in the plaques. The remaining mice are treated with Nutlin-3A or vehicle from weeks 8-10. At week 12 (timepoint 3), the mice are sacrificed and to assess the level of plaque and the number of senescent cells in the plaques.
# (§3) At the end of timepoint 3, LDLR−/− mice fed a HFD and treated with Nutlin-3A or vehicle (n=3 for all groups) were sacrificed, and aortas were dissected and stained with Sudan IV to detect the presence of lipid. Body composition of the mice was analyzed by MRI, and circulating blood cells were counted by Hemavet™.
# [7] = system: LDLR-/- mice fed a high fat diet; test: Atherosclerosis model: body composition by MRI and circulating blood cell counts; assay type: in vivo, mouse; details: timepoint 3
# Procedure: as §2, §3
# [8] = system: C57BL/6J mice with surgery-induced osteoarthritis; test: Osteoarthritis model (ACL surgery): qRT-PCR of senescence markers and SASP factors in operated joints; assay type: in vivo, mouse; details: 5.8 μg per operated knee intra-articular, 4 weeks post-surgery
# Procedure: as §1
# Two control groups of mice were included in the studies performed: one group comprising C57BL/6J or 3MR mice that had undergone a sham surgery (n=3) (i.e., surgical procedures followed except for cutting the ACL) and intra-articular injections of vehicle parallel to the GCV (ganciclovir) treated group; and one group comprising C57BL/6J or 3MR mice that had undergone an ACL surgery and received intra-articular injections of vehicle (n=5) parallel to the GCV-treated group. RNA from the operated joints of mice from the Nutlin-3A treated mice was analyzed for expression of SASP factors (mmp3, IL-6) and senescence markers (p16). qRT-PCR was performed to detect mRNA levels.
# [9] = system: C57BL/6J mice with surgery-induced osteoarthritis; test: Osteoarthritis model: histopathology of joint tissue; assay type: in vivo, mouse; details: ACL surgery, 4 weeks post-surgery
# Procedure: as §1
smiles,measurement,setting,value
"CC1(C)CCC(c2ccc(Cl)cc2)=C(CN2CCN(c3ccc(C(=O)NS(=O)(=O)c4ccc(N[C@H](CCN5CCOCC5)CSc5ccccc5)c(S(=O)(=O)C(F)(F)F)c4)cc3)CC2)C1 [ABT-263, Navitoclax]",SpO2 levels,[1],statistically significant increases
CN(C)CC[C@H](CSc1ccccc1)Nc1ccc(S(=O)(=O)NC(=O)c2ccc(N3CCN(Cc4ccccc4-c4ccc(Cl)cc4)CC3)cc2)cc1[N+](=O)[O-] [ABT-737],sensitivity of primary cells from patients with B-cell malignancies,[2],sensitive
same,dose-limiting toxicity in human patients,[3],dose-limiting thrombocytopenia
same,efficacy against cancer cells in human patients,[3],effective against some types of cancer cells
CC[C@H](C(=O)N1CCCC[C@H]1C(=O)O[C@H](CCc1ccc(OC)c(OC)c1)c1cccc(OCC(=O)NCC(CNC(=O)COc2cccc([C@@H](CCc3ccc(OC)c(OC)c3)OC(=O)[C@@H]3CCCCN3C(=O)[C@@H](CC)c3cc(OC)c(OC)c(OC)c3)c2)CN(C)C)c1)c1cc(OC)c(OC)c(OC)c1 [AP2018],SpO2 levels,[1],statistically significant increases
COc1ccc(C2=N[C@@H](c3ccc(Cl)cc3)[C@@H](c3ccc(Cl)cc3)N2C(=O)N2CCNC(=O)C2)c(OC(C)C)c1 [Nutlin-3A],SpO2 levels,[1],statistically significant increases
same,"expression of SASP factors and senescent cell markers MMP3, MMP13, PAI1, p21, IGFBP2, IL-1A, IL-1B in aortic arch","[4]; timepoint 1 (week 4), one treatment cycle",reduced expression of several SASP factors and senescent cell markers
same,expression of SASP factors and senescent cell markers in aortic arch,"[4]; timepoint 2 (week 8), multiple treatment cycles",reduced expression of most markers
same,weight placed on operated limb versus contralateral unoperated limb (favoring of unoperated hind limb),[5],abrogated this effect
same,reduction of surface area covered by plaques in the descending aorta,[6],about 45%
same,body fat composition,[7]; mice fed the high fat diet,decreased
same,mass,[7]; mice fed the high fat diet,decreased
same,lymphocyte counts versus vehicle treated mice,[7],equivalent
same,platelet counts versus vehicle treated mice,[7],equivalent
same,expression of IL-6 in the tissue,"[8]; q.o.d. for 2 weeks, mRNA",reduced the expression back to below the level of the controls
same,expression of MMP13 in the tissue,"[8]; q.o.d. for 2 weeks, mRNA",reduced the expression back to below the level of the controls
same,expression of p16 in the tissue,"[8]; q.o.d. for 2 weeks, mRNA",reduced the expression back to below the level of the controls
same,senescent cells in the joint,[8],cleared senescent cells from the joint
same,destruction of the proteoglycan layer (histopathology),[9],completely abrogated this effect
Nc1nc(O)c2ncn(COC(CO)CO)c2n1 [ganciclovir],SpO2 levels,[1],statistically significant increases
